In ChEMBL document CHEMBL3627672, “Structure-activity relationship study of syringolin A as a potential anticancer agent” (Bioorg Med Chem Lett, 2015):

How the values were obtained:
[1] = Cytotoxicity against human RPMI8266 cells
A-431 = experiment: Antiproliferative activity against human A431 cells after 72 hrs by oxyluciferin luminescence assay; settings: A-431, 72 h
[2] = Antiproliferative activity against human RPMI8266 cells after 72 hrs by oxyluciferin luminescence assay; settings: RPMI8266, 72 h
RKO = experiment: Antiproliferative activity against human RKO cells after 72 hrs by oxyluciferin luminescence assay
HCT-116 = experiment: Antiproliferative activity against human HCT116 cells after 72 hrs by oxyluciferin luminescence assay; settings: HCT-116, 72 h
[3] = Antiproliferative activity against human TOV21G cells after 72 hrs by oxyluciferin luminescence assay
CCRF-CEM = experiment: Antiproliferative activity against human CCRF-CEM cells after 72 hrs by oxyluciferin luminescence assay
[4] = molecular target: T1, Proteasome Macropain subunit MB1 (Homo sapiens, UniProt P28074); experiment: Inhibition of proteasome beta-5 (unknown origin)
T1 sequence (P28074 whole entry): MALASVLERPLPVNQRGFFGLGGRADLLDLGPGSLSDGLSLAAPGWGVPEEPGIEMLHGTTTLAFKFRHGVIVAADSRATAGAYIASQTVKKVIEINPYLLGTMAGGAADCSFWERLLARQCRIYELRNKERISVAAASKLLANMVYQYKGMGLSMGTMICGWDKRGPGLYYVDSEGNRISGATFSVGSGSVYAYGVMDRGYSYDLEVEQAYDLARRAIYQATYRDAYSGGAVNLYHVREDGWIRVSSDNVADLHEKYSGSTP

[5] = Cytotoxicity against human MM1S cells; type: functional, cell-based; settings: MM1.S

Row | IC50 (A-431) [nM] | IC50 (HCT-116) [nM] | IC50 (CCRF-CEM) [nM] | Ki [4] [nM] | SMILES | IC50 [1] [nM] | IC50 [2] [nM] | IC50 (RKO) [nM] | IC50 [3] [nM] | IC50 [5] [nM]
1 | 14.1 | 12.6 | 4.3 | – | CCCCCCCCCC(=O)N[C@@H](Cc1ccccc1)C(=O)N[C@H]1/C=C/CCNC(=O)/C=C/[C@H](C(C)C)NC1=O | 2.2 | 9 | 11.8 | 12.3 | –
2 | – | – | – | 843 | CC(C)[C@H](NC(=O)N[C@H](C(=O)N[C@H]1/C=C/CCNC(=O)/C=C/[C@H](C(C)C)NC1=O)C(C)C)C(=O)O | – | – | – | – | 8500
3 | 18.9 | 28.1 | 1.9 | – | CCCCCCCCCC(=O)N[C@@H](Cc1ccc(C)cc1)C(=O)N[C@H]1/C=C/CCNC(=O)/C=C/[C@H](C(C)C)NC1=O | – | 4.8 | 15.5 | 9.1 | –
4 | 134 | 68.5 | 32.3 | – | CCCCCCCCCC(=O)N[C@@H](Cc1ccc(O)cc1)C(=O)N[C@H]1/C=C/CCNC(=O)/C=C/[C@H](C(C)C)NC1=O | – | 28.3 | 43.7 | 151 | –
5 | 52.8 | 38.6 | 21.4 | – | CCCCCCCCCC(=O)N[C@@H](CC1CCCCC1)C(=O)N[C@H]1/C=C/CCNC(=O)/C=C/[C@H](C(C)C)NC1=O | – | 21 | 35.1 | 48.9 | –
6 | 28.2 | 27 | 11 | – | CC(C)C[C@H](NC(=O)[C@H](Cc1ccccc1)NC(=O)c1cnccn1)B(O)O [BORTEZOMIB] | – | 14.4 | 20.8 | 16.7 | –
7 | 29.3 | 31 | 1.5 | – | CCCCCCCCCC(=O)N[C@@H](Cc1cccc2ccccc12)C(=O)N[C@H]1/C=C/CCNC(=O)/C=C/[C@H](C(C)C)NC1=O | – | 7.4 | 31.3 | 13.2 | –
